Paper PMC12337130 (Nature microbiology, 2025)

B1: GST-vBcl-2 (1–146) with N67D/V117A (domain or fragment)
chain: MDEDVLPGEVLAIEGIFMACGLNEPEYLYHPLLSPIKLYITGLMRDKESLFEAMLANVRFHSTTGIDQLGLSMLQVSGDGNMNWGRALAILTFGSFVAQKLSNEPHLRDFALAVLPAYAYEAIGPQWFRARGGWRGLKAYCTQVLT

Experiments:
vBcl-2 = vBcl-2 (Human gammaherpesvirus 8, UniProt Q76RI8, N67D/V117A); assay: surface plasmon resonance; format: binding
vBcl-2–NM23-H2 complex = vBcl-2–NM23-H2 complex (Human gammaherpesvirus 8, UniProt Q76RI8, N67D/V117A); assay: HTRF protein-protein interaction assay; format: binding
[1] = molecular target: B1; assay: AlphaScreen or HTRF
His-NM23-H2 = His-NM23-H2 (human, UniProt P22392 1-152); assay: AlphaScreen or HTRF

## Cc1nc(Nc2nc3ccccc3o2)[nH]c(=O)c1C [VBNI-1, 2-(Benzo[d]oxazol-2-ylamino)-5,6-dimethylpyrimidin-4(3H)-one]
vBcl-2
  Kd: 875 nM
vBcl-2–NM23-H2 complex
  IC50: ~64 nM

## EDIIRNIARHLAQVGDSMDR [BID BH3 peptide]
[1]
  binding result: binds

## B1
His-NM23-H2
  binding result: binds
